From patent publication US4244956A, “Method of treating inflammation” (Forsyth Dental Infirmary for Children, priority 1979, dated 1981)
pIC50: −log10 of the molar value.

Legend:
prostaglandin synthetase = molecular target: T1, prostaglandin synthetase (Ovis aries, UniProt P05979); test: Inhibition of prostaglandin synthesis, sheep vesicular gland microsomal preparation, oxygen electrode; type: biochemical; conditions: sheep vesicular gland microsomes, pH 8.0, inhibitor added 1 minute before arachidonate; oxygen uptake; read-out: [I]50 Values for Inhibition of Prostaglandin Synthesis
T1 construct: sheep vesicular gland microsomal preparation; from tissue; host or cells: sheep vesicular gland microsomes
T1 sequence (P05979 25-600): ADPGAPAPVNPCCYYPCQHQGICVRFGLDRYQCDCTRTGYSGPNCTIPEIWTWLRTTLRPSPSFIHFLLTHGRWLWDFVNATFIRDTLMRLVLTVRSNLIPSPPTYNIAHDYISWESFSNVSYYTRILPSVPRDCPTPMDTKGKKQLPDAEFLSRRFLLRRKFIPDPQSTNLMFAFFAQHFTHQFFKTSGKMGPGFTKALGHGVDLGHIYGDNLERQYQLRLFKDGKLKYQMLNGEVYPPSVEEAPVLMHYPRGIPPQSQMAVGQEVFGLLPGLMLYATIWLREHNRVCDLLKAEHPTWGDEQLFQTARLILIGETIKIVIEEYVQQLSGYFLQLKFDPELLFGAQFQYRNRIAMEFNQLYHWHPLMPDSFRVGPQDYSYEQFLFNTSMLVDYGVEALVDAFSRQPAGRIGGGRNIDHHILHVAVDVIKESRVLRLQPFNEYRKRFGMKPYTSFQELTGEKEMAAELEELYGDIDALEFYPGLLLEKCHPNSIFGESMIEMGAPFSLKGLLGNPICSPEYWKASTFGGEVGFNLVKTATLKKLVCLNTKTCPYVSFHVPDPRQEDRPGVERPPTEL
Experimental: A commonly used model system for examination of prostaglandin synthetase inhibition is the sheep vesicular gland microsomal preparation (Wallach, D. P. and Daniels, E. G., Biochim. Biophys. Acta., 231: 445-457 (1971)). Prostaglandin synthetase activity was determined by following oxygen tension in a closed reaction chamber using a Clark-type oxygen electrode. For each assay, 2.9 ml of 0.1 M tris HCl buffer, pH 8.0, 10 ul of 0.2 M phenol, and 50 ul of enzyme suspension (2.5 mg microsomal preparation) were added to the reaction chamber. 10 ul of inhibitor in ethanol were added 1 minute prior to initiation of the reaction. The reaction was initiated by addition of 10 ul of 3.7 mM arachidonate solution. The concentration of an inhibitor that reduced prostaglandin synthesis by 50% ([I]50) was determined from plots of activity v. log concentration of inhibitor.

platelet aggregation = test: Inhibition of arachidonate-induced platelet aggregation in platelet-rich plasma (aggregometer); type: cell-based; conditions: 37° C, 50 ul of 10 mM arachidonate, read-out: [I]50, concentration of inhibitor which prevented irreversible aggregation 50% of the time
Experimental: Inhibition of platelet aggregation by prostaglandin synthetase inhibitors is of potential value in treating thromboembolic disorders. Aggregation experiments were performed in a single-channel Chrono-log Platelet Aggregometer at 37° C. To 500 ul of platelet-rich plasm were added 2 ul of inhibitor solution and 50 ul of 10 mM arachidonate. The [I]50 value was defined as the concentration of inhibitor which prevented irreversible aggregation 50% of the time. The [I]50 of 2-(phenylmethoxy)phenol was 0.57 uM.

Row | Structure (SMILES) | pIC50 (prostaglandin synthetase) | pIC50 (platelet aggregation)
1 | Cc1ccccc1COc1ccccc1O [2-(2-methylphenylmethoxy)phenol] | 5.33 | 
2 | Oc1ccccc1OCc1cccc(Cl)c1 [2-(3-chlorophenylmeythoxy)phenol, 2-(3-chlorophenylmethoxy)phenol] | 5.48 | 
3 | Oc1ccccc1OCc1ccccc1 [2-(phenylmethoxy)phenol] | 5.28 | 6.24
